Like-named read-outs stand apart in the source and are kept apart here.
Columns and labels:
male SD rats [1] = assay: Pharmacological test against hypertriglyceridemia (fructose-loaded rats, serum lipid analysis); assay type: in vivo; conditions: Rattus norvegicus, rats given aqueous 10% fructose for 2 days, oral, three doses, total dose 300 mg/kg as free carboxylic acid (total dose 300, esters 324-329 mg/kg), blood 48 hours after start
Source text: Seven groups of male SD rats, each group consisting of 6 animals, were used as test animals and one group consisting of 12 animals was used as a control. The test groups were made hypertriglyceridemic by administering aqueous 10% by weight solution of fructose for 2 days, while the animals of the control group were given tap water. The administration to the test groups of six pyrazole derivatives and of nicotinic acid was as follows:
Each pyrazole derivative and nicotinic acid was separately dissolved or dispersed in an aqueous 1% solution of carboxymethylcellulose (CMC) at a predetermined concentration, and the thus prepared solution or dispersion was orally administered in three doses, each dose having a volume of 0.5 ml/100 g body weight, a first dose just after the commencement of the test, a second dose 24 hours after the first dose, and a third dose 18 hours after the second dose. The total dosage of each compound was such that each animal received 300 mg/kg of each compound as free carboxylic acid. The rats of the control group were given the aqueous l% solution of CMC only, in three doses at the same intervals as the test groups. All the groups were fed with the same diet during the test period.
After 48 hours of the commencement of the test, a blood sample was collected from each animal by amputation of the carotid artery, and serum was separated from the blood sample and frozen to be kept until lipid analysis.
Serum triglyceride was determined by Acetylacetone Method, and the reduction percentage of lipid was calculated on the basis of the following formula: [formula] wherein the reduction percentage is the average for the test animals in each group.
The content of serum cholesterol was determined by an enzymatic method using cholesteroloxidase, and the reduction percentage of cholesterol was calculated according to the following formula: [formula]

male SD rats [2] = assay: Pharmacological test against hypercholesterolemia (high cholesterol diet rats); assay type: in vivo; conditions: high cholesterol diet for 7 days, oral 200 mg/kg/day for 7 consecutive days, blood after 20 hours of fasting; for Reduction Percentage Cholesterol in beta-lipoprotein: beta-lipoprotein-cholesterol (heparin-calcium precipitation); for Reduction Percentage Cholesterol: serum cholesterol
Source text: Three groups of male SD rats each weighing about 150g, each group consisting of five rats, were used as test animals and one group consisting of 10 rats was used as control. All animals were fed a high cholesterol diet consisted of 1% cholesterol, 0.2% sodium cholate, 5% olive oil and commercial diet up to total 100% for 7 days. The test compounds of the present invention and clofibrate, as a medicine for comparison, were respectively dissolved or dispersed in an aqueous 1% solution of CMC so that the volume of the solution or dispersion administered each time to an animal was 0.5 ml/l00g body weight, and the solution or dispersion was orally administered so that the amount of administration each time of each pyrazole derivative or of clofibrate was 200 mg/kg body weight. Administration was carried out once a day for 7 consecutive days. Water was taken ad lib. After 20 hours of fasting from the last administration, a blood sample was taken from each animal by amputation of the carotid artery, and the serum separated was frozen until the analysis of cholesterol shown as follows:
The content of serum cholesterol was determined by the above-mentioned method. The beta-lipoprotein- cholesterol was determined by "heparin-calcium precipitation method". The reduction percentage of cholesterol in serum and beta-lipoprotein were calculated in the same manner as above.

Acute toxicity, oral = conditions: mouse, in vivo, male ICR mice, in aqueous 1% CMC, roughly calculated from mortalities at 2.5 and 5.0 g/kg body weight
Experimental: The acute toxicity of the present pyrazole derivatives to mammals was determined by the following method.
Male ICR mice of body weight 21 to 25 g were divided into several groups each consisting of 8 animals and were fasted for 17 to 18 hours and then orally given a pyrazole derivative or nicotinic acid dissolved or dispersed in an aqueous 1% CMC solution at a rate of 0.2 ml/10 g body weight. The administered amount of each compound was 2.5 g/kg body weight or 5.0 g/kg, and from the mortalities at both levels, LD50 was roughly calculated and compared with LD50 of nicotinic acid.

[3] = serum cholesterol, read-out: Reduction Percentage Cholesterol
[4] = serum triglyceride, read-out: Reduction Percentage Triglyceride

Row | SMILES | inhibition in vivo at 300 mg/kg (male SD rats [1]; [3]) | inhibition in vivo at 300 mg/kg (male SD rats [1]; [4]) | Reduction Percentage Cholesterol in beta-lipoprotein (male SD rats [2]) | Reduction Percentage Cholesterol (male SD rats [2]) | LD50 (Acute toxicity, oral)
1 | CCCCCCCCCCCCCc1cc(C(=O)NCC(=O)OCC)n[nH]1 [3-N-ethoxycarbonylmethylcarbamoyl-5-n-tridecylpyrazole] | 34.8% | 81.4% | 32.7 | 48.6 | 
2 | CCCCCCCCCCCCCCCCCc1cc(C(=O)OCC)n[nH]1 [ethyl 5-n-heptadecylpyrazole-3-carboxylate] | 32.9% | 35.2% |  |  | 
3 | CCCCCCCCCCCCCc1cc(C(=O)OCC)n[nH]1 [ethyl 5-n-tridecylpyrazole-3-carboxylate] | 65.1% | 88% |  |  | 
4 | CCCCCCCCCCCCCCCCCc1cc(C(=O)O)n[nH]1 [5-n-heptadecylpyrazole-3-carboxylic acid] | 24.5% | 30.5% |  |  | 
5 | CCCCCCCCCCCCCCCc1cc(C(=O)O)n[nH]1 [5-n-pentadecylpyrazole-3-carboxylic acid] | 32.1% | 62.8% |  |  | 
6 | CCCCCCCCCCCCCCCc1cc(C(=O)OCC)n[nH]1 [ethyl 5-n-pentadecylpyrazole-3-carboxylate] | 34.1% | 67.8% |  |  | 
7 | CCCCCCCCCCCCCc1cc(CO)n[nH]1 [3-hydroxymethyl-5-n-tridecylpyrazole] | 55.8% | 78.2% | 25.2 | 52.7 | 
8 | CCCCCCCCCCCCCc1cc(C(=O)O)n[nH]1 [5-n-tridecylpyrazole-3-carboxylic acid] | 59.8% | 76.4% | 54.3 | 45.2 | 
9 | CCCCCCCCCCCCCc1cc(C(=O)O)nn1C [1-methyl-5-n-tridecylpyrazole-3-carboxylic acid] | 61.2% | 75.9% | 57.3 | 60.1 | 
10 | O=C(O)c1cccnc1 [Nicotinic acid, reference compound] | 16.4% | 24.1% |  |  | 4500 mg/kg
